PMC5458272
Like-named read-outs stand apart in the source and are kept apart here.

Columns and labels:
Aurora-A [1] = target: T1, Aurora-A (Homo sapiens, UniProt O14965); test: FastStep SPR direct binding of compounds to immobilized Aurora-A; design: His-tag (N); host or cells: Escherichia coli BL21(DE3); conditions: for Kd: SPR, Aurora-A immobilized on COOH5 sensorchip, affinities from Scatchard plots, ± standard error of best-fit, low affinity given as >100 μM
T1 sequence (O14965 1-403): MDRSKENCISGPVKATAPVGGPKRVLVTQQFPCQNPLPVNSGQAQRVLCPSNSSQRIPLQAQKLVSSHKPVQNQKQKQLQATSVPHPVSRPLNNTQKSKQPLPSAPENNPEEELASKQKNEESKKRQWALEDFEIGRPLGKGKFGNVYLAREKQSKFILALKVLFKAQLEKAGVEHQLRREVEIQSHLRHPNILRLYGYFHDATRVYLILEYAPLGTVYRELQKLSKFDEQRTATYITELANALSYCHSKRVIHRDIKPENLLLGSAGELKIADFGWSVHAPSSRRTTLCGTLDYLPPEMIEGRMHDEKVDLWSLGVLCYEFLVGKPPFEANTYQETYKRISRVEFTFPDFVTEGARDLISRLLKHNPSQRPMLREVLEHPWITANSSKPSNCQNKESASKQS
Method: We evaluated the interaction of the selected compounds with Aurora-A immobilized on a COOH5 sensorchip by FastStep Surface Plasmon Resonance (SPR) experiments. Sensorgrams were obtained using Aurora-A as ligand and injecting increasing concentrations of the inhibitors (see Materials and Methods) as analytes in running buffer (Figure 3A).
SPR experiments were carried out using a SensiQ Pioneer apparatus. The sensor chip (COOH5, with a hydrogel-based sensing surface endowed with high binding capacity) was chemically activated by a 35 μl injection of a 1:1 mixture of 200 mM N-ethyl-N’-(3-[…]) carbodiimide and 50 mM N-hydroxysuccinimide at a flow rate of 5 μl/min. Aurora-A was immobilized on the activated sensor chip via amine coupling. The immobilization was carried out in 20 mM sodium acetate at pH 4.5; the remaining ester groups were blocked by injecting 1 M ethanolamine hydrochloride (35 μl).
Compounds for testing were purchased from Ambinter (Paris, France). […] Compounds were injected onto the sensor chip at a constant flow in FastStep injection experiments, in order to rapidly obtain information on the binding of the analyte at different concentrations, with a single dissociation phase. […] At least two independent experiments were performed and averaged for each series of injections. The interaction of immobilized Aurora-A ligand with the inhibitor compounds was detected through mass concentration-dependent changes in the refractive index on the sensor chip surface, expressed as RUs.

Aurora-A/TPX2 complex = target: T2, Aurora-A/TPX2 complex (Homo sapiens, UniProt O14965); test: SPR competition between GST-TPX2-1-43 and compounds for Aurora-A binding; conditions: for Interference with TPX2 binding to Aurora-A (in words): SPR competition
T2 construct: His-tag (N); host or cells: Escherichia coli BL21(DE3)
T2 sequence (O14965 1-403): T1 sequence (O14965 1-403)
Method: (§4) TPX2 in running buffer was injected at different concentrations (ranging from 10 nM to 5 μM), in order to determine the affinity constant of the interaction between Aurora-A and TPX2 and the conditions of the competition experiments (flow rate= 30 μl/min). […] IC50 were calculated on the basis of the RU value at each inhibitor concentration (10 sec after the end of each association sensorgram) since TPX2 binding signal decreases by increasing inhibitor concentration. Both rapid binding and rapid dissociation of inhibitors were subtracted from the sensorgrams.

p-Thr288-Aurora-A = test: Immunofluorescence of Aurora-A auto-phosphorylation on Thr 288 in U2OS prometaphases; type: cell-based, human; conditions: thymidine arrest/release, monastrol added 2 hours before fixation
Method: (§1) We next wished to examine how compounds displaying inhibitory activity on the Aurora-A/TPX2 complex formation in vitro affected mitosis in human cells. […] C20 and C23 were tested in the U2OS osteosarcoma cell line, in which we previously characterized significant mitotic defects after Alisertib-dependent Aurora-A inhibition. Briefly, U20S cells were arrested at the G1/S transition by thymidine treatment, released in fresh medium to progress through S and G2 phases, then treated with either C20 or C23 (10 μM) 6 hours after thymidine release (Figure 6A). […] Defects were scored in prometa- and metaphases and included completely disorganized spindles (Figure 6A, second panel), or spindles with supernumerary poles (Figure 6A, third and fourth panel), as typically observed under impaired Aurora-A function. To directly assess the extent of Aurora-A activation we measured Aurora-A auto-phosphorylation on Thr 288. […]
(§2) The human U2OS osteosarcoma cell line (ATCC: HTB-96) was grown at 37°C in a 5% CO2 atmosphere in DMEM, supplemented with 10% fetal bovine serum. […] After further 4 hours cells were harvested and analyzed. […]
(§3) Cells grown on poly-lysine-coated coverslips were fixed with cold methanol, 6 min at -20°C. […] Samples were analyzed using a Nikon Eclipse 90i microscope equipped with a Qicam Fast 1394 CCD camera (QImaging). […]

[2] = system: U2OS osteosarcoma cell line; test: Immunofluorescence of mitotic spindle structure in synchronized U2OS cells; type: cell-based, human; conditions: 10 μM, added 6 hours after thymidine release, fixed after further 4 hours, alpha-tubulin staining
Method: as §1, §2, §3

Aurora-A [3] = target: T1, Aurora-A; test: SPR binding of GST-TPX2-1-43 or GST alone to immobilized Aurora-A; conditions: GST alone as control analyte
Method: as §4

## CC1=NC2=C(C(=O)CC(c3cccs3)C2)C(c2ccccn2)C1C(=O)Nc1ccc(F)cc1 (centres unmarked) [C17]
Aurora-A [1]; Kd
  Kd: > 100 µM

## CCn1c(NC(=O)CCn2c(-c3ccc(OC)cc3)n[nH]c2=S)nc2ccccc21 [C13]
Aurora-A [1]; Kd
  Kd: > 100 µM

## O=C1Nc2ccccc2/C1=N\NC(=O)c1cccc2ccccc12 [C01]
Aurora-A [1]; Kd
  Kd: > 100 µM

## CC1=C(C(=O)Nc2cccc(F)c2)[C@H](c2ccccn2)C2=C(C[C@H](c3ccccc3)CC2=O)N1 [C16]
Aurora-A [1]; Kd
  Kd: > 100 µM

## O=C1Nc2ccccc2/C1=N/NC(=O)c1ccc2ccccc2n1 [C02]
Aurora-A [1]; read-out: Kd
  Kd: 42 ± 9 µM
Aurora-A/TPX2 complex; read-out: IC50
  IC50: 40 ± 10 µM

## O=C(Nc1ccc2c(c1)CN(C(=O)c1ccco1)CC2)c1ccc(-c2ccccc2)cc1 [C12]
Aurora-A [1]; Kd
  Kd: > 100 µM
Aurora-A [1]; SPR direct binding
  Aurora-A binding (in words): no Aurora-A binding properties
Aurora-A/TPX2 complex
  IC50: > 100 µM
Aurora-A/TPX2 complex; 1 μM GST-TPX2-1-43
  Interference with TPX2 binding to Aurora-A (in words): did not influence the Aurora-A/TPX2 complex formation

## COc1cc(Nc2ncc3c(n2)-c2ccc(Cl)cc2C(c2c(F)cccc2OC)=NC3)ccc1C(=O)O [Alisertib, reference compound]
Aurora-A/TPX2 complex; 500 nM GST-TPX2-1-43, Supplementary Figure 2
  Interference with TPX2 binding to Aurora-A (in words): does not interfere with TPX2 binding to Aurora-A
Aurora-A/TPX2 complex; 1 μM GST-TPX2-1-43
  Interference with TPX2 binding to Aurora-A (in words): does not compete with TPX2 binding

## Cc1ccc2c(c1)/C(=N\NC(=O)C1COc3ccccc3O1)C(=O)N2 (centres unmarked) [C07]
Aurora-A [1]; Kd
  Kd: > 100 µM

## COc1ccc(-c2n[nH]c(=S)n2CCC(=O)Nc2ccc3nc(N4CCCC4)sc3c2)cc1 [C24]
Aurora-A [1]; Kd
  Kd: > 100 µM

## O=C(NCC1Cc2cccc(-c3ccncc3)c2O1)c1ccccc1F (centres unmarked) [C11]
Aurora-A [1]; Kd
  Kd: > 100 µM

## O=C1Cc2cc(S(=O)(=O)Nc3ccccc3C(=O)O)ccc2N1 [C06]
Aurora-A [1]; Kd
  Kd: > 100 µM

## CNC(=O)C1CN(C(=O)c2ccc3ccccc3c2)c2ccccc2O1 (centres unmarked) [C10]
Aurora-A [1]; Kd
  Kd: > 100 µM

## O=C(Nc1cccc2ncccc12)c1ccc2c(c1)OCCCO2 [C03]
Aurora-A [1]; Kd
  Kd: > 100 µM

## COc1ccc(CNC(=O)C(C)Oc2ccc3c(c2)c2ccnc4c5ccccc5c(=O)n3c24)cc1 (centres unmarked) [C23]
p-Thr288-Aurora-A
  p-Thr288-Aurora-A signal compared to controls: highly significant reduction
[2]
  Mitotic spindle defects in prometa- and metaphases: aberrant mitotic spindles
Aurora-A [1]; read-out: Kd
  Kd: 12 ± 5 µM
Aurora-A/TPX2 complex; read-out: IC50
  IC50: 30 ± 8 µM

## COc1cc(/C=C2\C(=O)Nc3ccccc32)c(Br)cc1OCc1ccccc1C#N [C19]
Aurora-A [1]; Kd
  Kd: > 100 µM

## CN1/C(=C\c2cccc3[nH]ccc23)C(=O)c2ccccc2S1(=O)=O [C08]
Aurora-A [1]; Kd
  Kd: 80 ± 30 µM

## CC1=NC2=C(C(=O)CC(c3ccccc3)C2)C(c2ccccn2)C1C(=O)Nc1ccc(F)cc1 (centres unmarked) [C15]
Aurora-A [1]; Kd
  Kd: > 100 µM

## CC1=C(/C(O)=N/c2ccc(F)cc2F)[C@H](c2cccnc2)C2=C(C[C@@H](c3ccccc3)CC2=O)N1 [C22]
Aurora-A [1]; read-out: Kd
  Kd: 15 ± 6 µM
Aurora-A/TPX2 complex; 1 μM GST-TPX2-1-43
  Interference with TPX2 binding to Aurora-A (in words): did not interfere with the formation of the Aurora-A/TPX2 complex
Aurora-A/TPX2 complex; read-out: IC50
  IC50: > 100 µM

## O=C1Nc2ccccc2/C1=N\NC(=O)C1COc2ccccc2O1 (centres unmarked) [C04]
Aurora-A [1]; Kd
  Kd: 100 µM

## CC1=NC2=C(C(=O)CC(c3cccs3)C2)C(c2ccccn2)C1C(=O)Nc1cccc(F)c1 (centres unmarked) [C18]
Aurora-A [1]; read-out: Kd
  Kd: > 100 µM

## O=C1Nc2ccc(F)cc2/C1=N\NC(=O)c1ccc2c(c1)OCO2 [C05]
Aurora-A [1]; Kd
  Kd: > 100 µM

## O=C(COc1ccc2[nH]c3ccccc3c(=O)c2c1)N1c2ccccc2OCC1c1ccccc1 (centres unmarked) [C21]
Aurora-A [1]; Kd
  Kd: > 100 µM

## O=C(NCCOc1ccc(-c2ccc(F)cc2)nn1)C1c2ccccc2Oc2ccccc21 [C14]
Aurora-A [1]; Kd
  Kd: > 100 µM

## COc1cc(NC(=S)NC(=O)c2cccc(F)c2)ccc1NC(=O)c1cc2ccccc2o1 [C20]
p-Thr288-Aurora-A
  p-Thr288-Aurora-A signal compared to controls: highly significant reduction
[2]
  Mitotic spindle defects in prometa- and metaphases: aberrant mitotic spindles
Aurora-A [1]; Kd
  Kd: 30 ± 15 µM
Aurora-A/TPX2 complex
  IC50: 20 ± 10 µM

## Cc1oc2cc(OCC(N)=O)ccc2c(=O)c1-c1ccc(Cl)cc1 [C09]
Aurora-A [1]; Kd
  Kd: 80 ± 15 µM

## CC(Oc1ccc2c(c1)c1ccnc3c4ccccc4c(=O)n2c13)C(=O)NCc1ccc2c(c1)OCO2 (centres unmarked) [C25]
Aurora-A [1]; read-out: Kd
  Kd: 12 ± 6 µM
Aurora-A/TPX2 complex; read-out: IC50
  IC50: 40 ± 10 µM

## GST: Recombinant GST protein alone, from Sigma (SRP5348), control analyte
Aurora-A [3]
  Kd: > 5 µM
